This passage reports mortality results from patent publication US20240196898A1, “INSANITARY INSECT PEST CONTROL METHOD USING CONDENSED HETEROCYCLIC COMPOUND” (SUMITOMO CHEMICAL COMPANY, LIMITED, priority 2021, published 2024).

SMILES strings stand for the structures.

Holding throughout (type): in vivo
Assay [1] relates to little red worker ants (Monomorium pharaonis). Briefly: Test Example 3: vial inner-wall contact test, 1 hour exposure, little red worker ants. The following applies: Monomorium pharaonis workers, after 1 day, read-out: Moribund and mortal rates (%) after 1 day; for mortality at 5 mg/m2: 5 mg/m^2 treated per area; for mortality at 100 mg/m2: 100 mg/m^2 treated per area; for mortality at 300 mg/m2: 300 mg/m^2 treated per area. The protocol:
(§1) In a 20 mL volume vial, 0.2 mL of an acetone solution (containing 0.09% of a surfactant added therein) which contains prescribed amount of the present compound A, the present compound B, comparative compound 1, comparative compound 2, comparative compound 3, or comparative compound 4 was added dropwise and the inner wall of the vial was coated homogeneously with the chemicals and then air-dried. Thereafter, little red worker ants (Monomorium pharaonis) were released and the vial was sealed with a lid. After 1 hour, little red worker ants in the vial were transferred to a new plastic cup, followed by feeding 38 sucrose water. After 1 day, the number of dead and moribund individuals was examined, and moribund and mortal rates (%) were determined by the equation 3 below. Dead individuals are completely immobile individuals, and moribund individuals are individuals who cannot get up when turned on their backs, and are non-ambulatory.
Moribund and mortal rates (%)={(number of dead individuals+number of moribund individuals)/number of tested individuals}×100 (Equation 3)
The amount to be treated per area was set at 300, 100 and 5 mg/m^2.

For assay [2], the system named is African malaria mosquitos (Anopheles gambiae). Briefly: Test Example 2: vial inner-wall contact test, 50 minutes exposure, female adult African malaria mosquitos. The following applies: Anopheles gambiae female adults, after 4 days, read-out: Moribund and mortal rates (%) after 4 days; for mortality at 5 mg/m2: 5 mg/m^2 treated per area; for mortality at 10 mg/m2: 10 mg/m^2 treated per area; for mortality at 300 mg/m2: 300 mg/m^2 treated per area. How it is done: In a 250 mL volume vial, 1.0 mL of an acetone solution (containing 0.09% of a surfactant added therein) which contains prescribed amount of the present compound A, the present compound B, comparative compound 1, comparative compound 2, comparative compound 3, or comparative compound 4 was added dropwise and the inner wall of the vial was coated homogeneously with the chemicals and then air-dried. Thereafter, female adult African malaria mosquitos (Anopheles gambiae) were released and the vial was sealed with a lid, followed by exposure for 50 minutes. 50 Minutes after exposure, African malaria mosquitos were transferred to a new plastic cup, followed by feeding sugar water. After 4 days, the number of dead and moribund individuals of African malaria mosquitos was examined, and moribund and mortal rates (%) were determined by the equation 2 below. Dead individuals are completely immobile individuals, and moribund individuals are individuals who are flightless and non-ambulatory.
Moribund and mortal rates (%)={(number of dead individuals+number of moribund individuals)/number of tested individuals}×100 (Equation 2)
The amount to be treated per area was set at 300, 10 and 5 mg/m^2.

For assay [3], the system named is Formosan subterranean worker termites (Coptotermes formosanus). Put plainly: Test Example 4: treated filter paper contact test, 1 hour exposure, Formosan subterranean worker termites. The note with it: Coptotermes formosanus workers, after 3 days, read-out: Moribund and mortal rates (%) after 3 days; for mortality at 300 mg/m2: 300 mg/m^2 treated per area; for mortality at 500 mg/m2: 500 mg/m^2 treated per area; for mortality at 1000 mg/m2: 1,000 mg/m^2 treated per area. How it is done:
0.6 mL of an acetone solution containing prescribed amount of the present compound A, the present compound B, comparative compound 1, comparative compound 2, comparative compound 3, or comparative compound 4 was added dropwise on a filter paper having a diameter of 82 mm, followed by air drying. The filter paper was attached to a plastic petri dish having a diameter of 90 mm without gaps by adding dropwise 1.4 mL of water, and then Formosan subterranean worker termites (Coptotermes formosanus) were released and the vial was sealed with a lid, followed by exposure for 1 hours. After exposure for 1 hour, Formosan subterranean worker termites were transferred to a new plastic cup with bottom lined with the filter paper, followed by feeding water. After 3 days, the number of dead and moribund individuals of Formosan subterranean worker termites was examined, and moribund and mortal rates (%) were determined by the equation 4 below. Dead individuals are completely immobile individuals, and moribund individuals are individuals who are flightless and non-ambulatory.
Moribund and mortal rates (%)={(number of dead individuals+number of moribund individuals)/number of tested individuals}×100 (Equation 4)
The amount to be treated per area was set at 1,000, 500 and 300 mg/m^2.

Assay [4] concerns German cockroaches (Blattella germanica). Put plainly: Test Example 1: vial inner-wall residual contact test, German cockroaches. The note with it: German cockroach, read-out: Moribund and mortal rates (%); for mortality at 5 mg/m2: 5 mg/m^2 treated per area; for mortality at 50 mg/m2: 50 mg/m^2 treated per area; for mortality at 150 mg/m2: 150 mg/m^2 treated per area; for mortality at 300 mg/m2: 300 mg/m^2 treated per area; for mortality at 1000 mg/m2: 1,000 mg/m^2 treated per area. The protocol:
as §1, with “five German cockroaches (Blattella germanica)” for “little red worker ants (Monomorium pharaonis)”, “After 1 hour, little red worker ants in the vial were transferred to a new plastic cup, followed by feeding 38 sucrose water. After 1 day, the number of dead and moribund individuals was examined, and moribund and mortal rates (%) were determined by the equation 3 below.” left out
Moribund and mortal rates (%)={(number of dead individuals+number of moribund individuals)/number of tested individuals}×100 (Equation 1)
The amount to be treated per area was set at 1000, 300, 150, 50 and 5 mg/m^2.

As to `CCS(=O)(=O)c1cc(C(F)(F)F)cnc1-c1nc2cc([S+]([O-])C(F)(F)F)ccc2o1` (stereo not drawn) [Comparative compound 1], in assay [1], the mortality at 5 mg/m2 was 30%, the mortality at 100 mg/m2 is 40% and the mortality at 300 mg/m2 was 100%. For the same molecule, in assay [2], the mortality at 5 mg/m2 stood at 3%, the mortality at 10 mg/m2 amounted to 43% and the mortality at 300 mg/m2 came out at 53%. For the same molecule, in assay [3], the mortality at 300 mg/m2 came out at 10%, the mortality at 500 mg/m2 amounted to 30% and the mortality at 1000 mg/m2 came to 100%. Also, in assay [4], the mortality at 5 mg/m2 came to 10%, the mortality at 50 mg/m2 was determined as 30%, the mortality at 150 mg/m2 came out at 50% and the mortality at 300 mg/m2 worked out at 50%. The mortality at 1000 mg/m2 in assay [4] is 100%.
In the case of `CCS(=O)(=O)c1cc(C(F)(F)F)cnc1-c1nc2cc(S(=O)(=O)C(F)(F)F)ccc2o1` [Comparative compound 2], in assay [1], the mortality at 5 mg/m2 came out at 20%, the mortality at 100 mg/m2 is 50% and the mortality at 300 mg/m2 is 100%. Moreover, in assay [2], the mortality at 5 mg/m2 worked out at 8%, the mortality at 10 mg/m2 worked out at 13% and the mortality at 300 mg/m2 was 15%. Moreover, in assay [3], the mortality at 300 mg/m2 came out at 10%, the mortality at 500 mg/m2 turned out to be 20% and the mortality at 1000 mg/m2 stood at 100%. For the same molecule, in assay [4], the mortality at 5 mg/m2 was 10%, the mortality at 50 mg/m2 is 10%, the mortality at 150 mg/m2 stood at 20% and the mortality at 300 mg/m2 was determined as 50%. Moreover, the mortality at 1000 mg/m2 in assay [4] was determined as 100%.
Regarding `CCS(=O)(=O)c1cc(C)cnc1-c1nc2cc([S+]([O-])C(F)(F)F)ccc2o1` (stereo not drawn) [Comparative compound 3], in assay [1], the mortality at 5 mg/m2 is 10%, the mortality at 100 mg/m2 was found to be 30% and the mortality at 300 mg/m2 is 100%. In assay [2], the mortality at 5 mg/m2 is 6%, the mortality at 10 mg/m2 came out at 7% and the mortality at 300 mg/m2 is 35%. Further, in assay [3], the mortality at 300 mg/m2 turned out to be 10%, the mortality at 500 mg/m2 was determined as 10% and the mortality at 1000 mg/m2 was determined as 100%. Also, in assay [4], the mortality at 5 mg/m2 was found to be 10%, the mortality at 50 mg/m2 was 30%, the mortality at 150 mg/m2 was determined as 30% and the mortality at 300 mg/m2 is 40%. Also, the mortality at 1000 mg/m2 in assay [4] was 100%.
As for `CCS(=O)(=O)c1cc(C)cnc1-c1nc2cc(S(=O)(=O)C(F)(F)F)ccc2o1` [Comparative compound 4], in assay [1], the mortality at 5 mg/m2 came to 10%, the mortality at 100 mg/m2 turned out to be 20% and the mortality at 300 mg/m2 came to 100%. In assay [2], the mortality at 5 mg/m2 was 8%, the mortality at 10 mg/m2 worked out at 15% and the mortality at 300 mg/m2 is 26%. Moreover, in assay [3], the mortality at 300 mg/m2 was 10%, the mortality at 500 mg/m2 was 10% and the mortality at 1000 mg/m2 is 100%. In assay [4], the mortality at 5 mg/m2 was found to be 10%, the mortality at 50 mg/m2 came to 10%, the mortality at 150 mg/m2 was 20% and the mortality at 300 mg/m2 was 30%. Besides, the mortality at 1000 mg/m2 in assay [4] amounted to 100%.
In the case of `CCS(=O)(=O)c1cc(C2CC2)cnc1-c1nc2cc([S+]([O-])C(F)(F)F)ccc2o1` (stereo not drawn) [Present compound A], in assay [1], the mortality at 5 mg/m2 was determined as 100%, the mortality at 100 mg/m2 was 100% and the mortality at 300 mg/m2 was 100%. Besides, in assay [2], the mortality at 5 mg/m2 amounted to 100%, the mortality at 10 mg/m2 was found to be 100% and the mortality at 300 mg/m2 amounted to 100%. In assay [3], the mortality at 300 mg/m2 came to 100%, the mortality at 500 mg/m2 amounted to 100% and the mortality at 1000 mg/m2 is 100%. In assay [4], the mortality at 5 mg/m2 was found to be 100%, the mortality at 50 mg/m2 amounted to 100%, the mortality at 150 mg/m2 is 100% and the mortality at 300 mg/m2 is 100%. The mortality at 1000 mg/m2 in assay [4] came out at 100%.
As to `CCS(=O)(=O)c1cc(C2CC2)cnc1-c1nc2cc(S(=O)(=O)C(F)(F)F)ccc2o1` [Present compound B], in assay [1], the mortality at 5 mg/m2 turned out to be 100%, the mortality at 100 mg/m2 was 100% and the mortality at 300 mg/m2 came out at 100%. Besides, in assay [2], the mortality at 5 mg/m2 was 100%, the mortality at 10 mg/m2 turned out to be 100% and the mortality at 300 mg/m2 stood at 100%. Further, in assay [3], the mortality at 300 mg/m2 is 100%, the mortality at 500 mg/m2 stood at 100% and the mortality at 1000 mg/m2 stood at 100%. Moreover, in assay [4], the mortality at 5 mg/m2 amounted to 100%, the mortality at 50 mg/m2 was found to be 100%, the mortality at 150 mg/m2 is 100% and the mortality at 300 mg/m2 came out at 100%. Also, the mortality at 1000 mg/m2 in assay [4] turned out to be 100%.
